In the oligonucleotide strings, read from the 5' end, every base follows the letter of its sugar. An asterisk marks phosphorothioate; unmarked linkages are phosphodiester. Other units and linkages are bracketed, terminal groups are in braces. A string of capitals states the bases alone. e = 2'-O-(2-methoxyethyl) (MOE); [5mC] = 5-methylcytosine; d = 2'-deoxy (DNA)
System: IL-1, IL-6, IL-10, IL-12, IL-17, TNF-α, GATA-3
Experiment: Colitis Study F: cytokine and GATA-3 mRNA levels in colon
Type: in vivo, Swiss Webb mice
Conditions: day 7
Description: In a first group of 8 Swiss Webb mice, 50 mg/kg of ISIS 404071 was injected subcutaneously twice a week for 3 weeks. Two control groups of 8 mice each were injected with PBS twice a week for 3 weeks. After the oligonucleotide treatment, 4% DSS in water was administered ad libitum for 7 days to the experimental group and one PBS control group. Mice were sacrificed at the end of the study on day 7 after DSS was administered.
The mRNA levels of cytokines IL-1, IL-6, IL-10, IL-12, IL-17 and TNF-α were measured in the colon of the mice groups at the end of the study on day 7 after DSS was administered. Colons were homogenized on ice in PBS supplemented with protease inhibitors (Sigma, St. Louis, Mo.) and extracted with rotation at 4° C. for 1 hour. After removal of insoluble material by centrifugation, colon homogenates were used for the cytokine analysis by multiplex ELISA (Meso Scale Discovery, Gaithersburg, Md.) according to the manufacture's protocol. Cytokine levels in colon extracts were normalized to the protein concentration measured by protein assay kit (BioRad, Hercules, Calif.). The levels of pro-inflammatory cytokines, including Th1 cytokines IL-1 and IL-6, elevated by DSS administration were decreased by treatment with ISIS 404071.

In the case of “TGGTAATCCACTTTCAGAGG (eT*eG*eG*eT*eA*dA*dT*d[5mC]*d[5mC]*dA*d[5mC]*dT*dT*dT*d[5mC]*eA*eG*eA*eG*eG) [ISIS 404071, 5-10-5 MOE gapmer targeting murine Factor XI, target start site 869]”, the “pro-inflammatory cytokines incl. IL-1 and IL-6 in colon (in words)” value (Colitis Study F) is reported as “decreased”, the “GATA-3 mRNA level in the colon” value (DSS-treated mice, 50 mg/kg) is reported as 359 % of PBS treated animals and the “IL-1 mRNA level in the colon” value (DSS-treated mice, 50 mg/kg) is reported as 1189 % of PBS treated animals. The “IL-6 mRNA level in the colon” value (DSS-treated mice, 50 mg/kg) was 1056 % of PBS treated animals, the “IL-10 mRNA level in the colon” value (DSS-treated mice, 50 mg/kg) was 202 % of PBS treated animals and the “IL-12 mRNA level in the colon” value (DSS-treated mice, 50 mg/kg) was 234 % of PBS treated animals. For the same sequence, the “IL-17 mRNA level in the colon” value (DSS-treated mice, 50 mg/kg) was 787 % of PBS treated animals and the “TNF-α mRNA level in the colon” value (DSS-treated mice, 50 mg/kg) was 1127 % of PBS treated animals.

Reference: patent publication US20120083522A1, “MODULATION OF INFLAMMATORY RESPONSES BY FACTOR XI” (Isis Pharmaceuitcals, inc., priority 2009, published 2012)
